Like-named read-outs stand apart in the source and are kept apart here.
Experiments:
[1] = biological target: Amyloid-β (Aβ) of the conditioned media of A549 and H1299 cells (human (endogenous in A549 and H1299)); experiment: ELISA
[2] = biological target: Amyloid-β (Aβ) of the conditioned media of A549 and H1299 cells (human (endogenous in A549 and H1299)); experiment: ELISA; remark: listed apart in the source
Aβ42 = experiment: Thioflavin T; assay type: biochemical; settings: 37 °C
Aβ in H1299 medium = experiment: Aβ ELISA; assay type: cell-based, human; settings: Figure 11B; H1299 medium immunodepleted of the named component
[3] = test system: Aβ / amyloid oligomers and fibrils in A549 medium; experiment: Dot blot of immunodepleted A549 medium; assay type: cell-based, human; settings: A549 medium immunodepleted of the named component; for anti-A11 oligomer signal after immunodepletion: Figure 9C,F
[4] = test system: amyloid oligomers and fibrils in A549 medium; experiment: Dot blot of A549 medium with exogenous IGFBP-3; assay type: cell-based, human; settings: 400 nM vs 100 nM IGFBP-3, A549 medium
Aβ40 = experiment: Thioflavin T; assay type: biochemical; settings: 37 °C
Aβ in A549 medium = experiment: Aβ ELISA; assay type: cell-based, human; settings: Figure 11A; A549 medium immunodepleted of the named component
[5] = test system: HN-Aβ (Aβ40 or Aβ42) complex; experiment: ELISA, HN-Aβ binding with increasing AChE, without or with IGFBP-3
H1299 cells [6] = experiment: Apoptosis, annexin V ELISA, H1299 cells; assay type: cell-based, human; settings: medium immunodepleted of the named component, 48 h
[7] = test system: amyloid complexes in A549 conditioned medium; assay type: binding, human
[8] = test system: 6E10-bound Aβ complex from A549 conditioned medium; experiment: 6E10 capture ELISA of A549 conditioned medium with exogenous IGFBP-3; assay type: binding, human
[9] = test system: A549 human lung cancer cell; settings: residues 215–232 of IGFBP-3 bind hyaluronan, blocking CD44; cited from earlier work
A549 cells [10] = experiment: Apoptosis, annexin V ELISA, A549 cells; assay type: cell-based, human; settings: medium immunodepleted of the named component, 48 h
[11] = test system: amyloid oligomers and fibrils in H1299 medium; experiment: Dot blot of H1299 medium with exogenous IGFBP-3; assay type: cell-based, human
H1299 cells [12] = experiment: MTT assay, H1299 cells; assay type: cell-based, human; settings: medium immunodepleted of the named component, 48 h
A549 cells [13] = experiment: MTT assay, A549 cells; assay type: cell-based, human; settings: medium immunodepleted of the named component, 48 h
[14] = test system: 6E10-bound Aβ complex from H1299 conditioned medium; experiment: 6E10 capture ELISA of H1299 conditioned medium with exogenous IGFBP-3; assay type: binding, human
Aβ40-HN interactions = settings: cited from earlier work
biotin-humanin [15] = experiment: ELISA
Humanin (HN) peptide = experiment: ELISA
biotin-humanin [16] = experiment: ELISA; remark: listed apart in the source
biotin-humanin [17] = experiment: ELISA; remark: listed apart in the source
biotin-humanin [18] = experiment: ELISA; remark: listed apart in the source
[19] = test system: complex between HN and Aβ42; experiment: ELISA, IGFBP-3 competition for the HN-Aβ42 complex; assay type: binding; settings: AChE (100 nM), HN (100 nM)
[20] = test system: complex between HN and Aβ40; experiment: ELISA, IGFBP-3 competition for the HN-Aβ40 complex; assay type: binding; settings: AChE (100 nM), HN (100 nM)
[21] = test system: Aβ from A549 conditioned medium bound to 6E10; experiment: 6E10 capture ELISA of A549 conditioned medium with exogenous HN; assay type: binding, human
[22] = test system: Aβ / amyloid oligomers and fibrils in H1299 medium; experiment: Dot blot of immunodepleted H1299 medium; assay type: cell-based, human; settings: Figure 9B,E; H1299 medium immunodepleted of the named component
Aβ (12–28) and Aβ (1–16) = settings: cited from earlier work
[23] = test system: Aβ from H1299 conditioned medium bound to 6E10; experiment: 6E10 capture ELISA of H1299 conditioned medium with exogenous HN; assay type: binding, human
[24] = Figure 8A, added IGFBP-3, cell line not stated
[25] = Figure 8A, cell line not stated
[26] = Figure 8B, A549 medium, added IGFBP-3

## Humanin (HN) peptide
[1]
  fold increase of the HN signal at 400 nM added HN over no added HN: 2.5 fold
[2]
  fold decrease of AChE bound to Aβ with added HN: 1.5 fold
  fold increase of the HN signal at 400 nM added HN over no added HN: 2.5 fold

## Aβ42 [reference compound]
Aβ42; Aβ42 2 μM, 335 min
  aggregation kinetics compared to Aβ40 (ThT): faster aggregation kinetics

## IGFBP-3
Aβ in H1299 medium
  effect of immunodepletion on total Aβ or oligomer: No effects
[3]
  anti-A11 oligomer signal after immunodepletion: No difference
[4]
  further effect of 400 nM IGFBP-3 on A11/LOC signals: did not have any further effect
Aβ40; Aβ40 2 μM, HN 2 μM, IGFBP-3 2 μM, 335 min, no AChE
  effect of 2 μM IGFBP-3 on HN block of Aβ40 aggregation (ThT): reduced the ability of HN to block aggregation of Aβ, but only partially
Aβ40; Aβ40 2 μM, HN 2 μM, IGFBP-3 6 μM, 335 min, no AChE
  effect of 6 μM IGFBP-3 on HN block of Aβ40 aggregation (ThT): completely abolished the ability of HN to block the aggregation of Aβ
Aβ40; Aβ40, AChE, HN each 2 μM, IGFBP-3 6 μM
  Aβ40 aggregation with 6 μM IGFBP-3 in presence of AChE and HN (ThT): aggregation kinetics comparable to those of Aβ incubated with only AChE
Aβ in A549 medium
  effect of immunodepletion on total Aβ or oligomer: No effects
[5]; 2 μM IGFBP-3, HN and Aβ 0.2 μM
  HN-Aβ binding signal: completely abolished the signal
H1299 cells [6]
  apoptosis after treatment with immunodepleted medium: no effect
[7]
  detection in complex with any of the antibodies tested (6E10, 4G8, A11, LOC): No IGFBP-3 was detected
[8]; A549 medium, Figure 8A-C
  IGFBP-3 detection in 6E10 complex after adding 400 nM IGFBP-3: did not result in detection of IGFBP-3
[8]; [24]
  A11 (amyloid oligomer) signal fold increase relative to control: ~ 3.9 fold
  LOC (amyloid fibrils) signal fold increase relative to control: ~ 1.7 fold
[8]; [25]
  HN in 6E10 complex upon addition of 50 nM IGFBP-3: diminished
  HN in 6E10 complex upon addition of 100 nM IGFBP-3: completely depleted
[8]; [26]
  A11 signal fold increase relative to control without IGFBP-3: ~ 3.9 fold
  LOC signal fold increase relative to control with no IGFBP-3: ~ 1.59 fold
[9]
  A549 cell viability: reducing A549 human lung cancer cell viability
Aβ42; Aβ42 2 μM, HN 2 μM, IGFBP-3 2 μM, 335 min, no AChE
  effect of 2 μM IGFBP-3 on HN block of Aβ42 aggregation (ThT): reduced the ability of HN to block aggregation of Aβ, but only partially
Aβ42; Aβ42 2 μM, HN 2 μM, IGFBP-3 6 μM, 335 min, no AChE
  effect of 6 μM IGFBP-3 on HN block of Aβ42 aggregation (ThT): completely abolished the ability of HN to block the aggregation of Aβ
Aβ42; Aβ42, AChE, HN each 2 μM, IGFBP-3 6 μM
  Aβ42 aggregation with 6 μM IGFBP-3 in presence of AChE and HN (ThT): aggregation kinetics comparable to those of Aβ incubated with only AChE
A549 cells [10]
  apoptosis after treatment with immunodepleted medium: reduced apoptosis
[11]; 100 nM IGFBP-3 added, H1299 medium (no increase)
  anti-LOC signal, cell media in which increase was observed: only in the A549 medium
[11]; 400 nM vs 100 nM IGFBP-3, H1299 medium
  further effect of 400 nM IGFBP-3 on A11/LOC signals: did not have any further effect
H1299 cells [12]
  cell viability after treatment with immunodepleted medium: no effect
A549 cells [13]
  cell viability after treatment with immunodepleted medium: increased the A549 cell viability
[14]; Figure 8A-C
  IGFBP-3 detection in 6E10 complex after adding 400 nM IGFBP-3: did not result in detection of IGFBP-3
[14]; Figure 8C
  LOC signal with added IGFBP-3: no signal was observed
[14]; Figure 8C, added IGFBP-3
  A11 signal fold increase relative to control with no IGFBP-3: ~ 2.5 fold

## HN (5–15) (GFSCLLLLTSE; Humanin; UniProt Q8IVG9 5-15, looked up, fragment)
Aβ40-HN interactions
  inhibition of Aβ40-HN interactions: more effective inhibitor of Aβ40-HN interactions than Aβ (17–28)

## HN (5–15, L11S) (GFSCLLSLTSE; Humanin; UniProt Q8IVG9 5-15, looked up, variant L11S)
Aβ40-HN interactions
  inhibition of Aβ40-HN interactions: reduced the ability of HN (5–15) to compete with the Aβ40-HN interactions

## Recombinant human insulin-like growth factor binding protein-3 (IGFBP-3) (from UniProt P17936 28-291) (natural protein)
biotin-humanin [15]
  IC50: 58 nM
Humanin (HN) peptide
  percent decrease of the biotinylated Aβ signal on HN at 0.2 μM IGFBP-3: 50%
biotin-humanin [16]
  IC50: 93 nM
biotin-humanin [17]
  IC50: 39 nM
biotin-humanin [18]
  IC50: 74 nM

B1: AChE (protein)
chain: EGREDAELLVTVRGGRLRGIRLKTPGGPVSAFLGIPFAEPPMGPRRFLPPEPKQPWSGVVDATTFQSVCYQYVDTLYPGFEGTEMWNPNRELSEDCLYLNVWTPYPRPTSPTPVLVWIYGGGFYSGASSLDVYDGRFLVQAERTVLVSMNYRVGAFGFLALPGSREAPGNVGLLDQRLALQWVQENVAAFGGDPTSVTLFGESAGAASVGMHLLSPPSRGLFHRAVLQSGAPNGPWATVGMGEARRRATQLAHLVGCPPGGTGGNDTELVACLRTRPAQVLVNHEWHVLPQESVFRFSFVPVVDGDFLSDTPEALINAGDFHGLQVLVGVVKDEGSYFLVYGAPGFSKDNESLISRAEFLAGVRVGVPQVSDLAAEAVVLHYTDWLHPEDPARLREALSDVVGDHNVVCPVAQLAGRLAAQGARVYAYVFEHRASTLSWPLWMGVPHGYEIEFIFGIPLDPSRNYTAEEKIFAQRLMRYWANFARTGDPNEPRDPKAPQWPPYTAGAQQYVSLDLRPLEVRRGLRAQACAFWNRFLPKLLSATDTLDEAERQWKAEFHRWSSYMVHWKNQFDHYSKQDRCSDL
Aβ in H1299 medium
  effect of immunodepletion on total Aβ or oligomer: No change
[3]; Figure 9B,E
  Aβ detected with anti-6E10 after immunodepletion: decreased the amount of Aβ
[3]
  anti-A11 oligomer signal after immunodepletion: No difference
Aβ40; Aβ40 2 μM, AChE 2 μM, 335 min
  aggregation of Aβ40 with AChE (ThT): increased aggregation with changes in both the lag phase and the final ThT fluorescence value
[19]
  effect of added AChE on IGFBP-3 competition with Aβ42 for HN: no difference
[20]
  effect of added AChE on IGFBP-3 competition with Aβ40 for HN: no difference
[5]; 0.2 or 2 μM IGFBP-3 present
  change in signal with increasing AChE in presence of IGFBP-3: no change in the signal
H1299 cells [6]
  apoptosis after treatment with immunodepleted medium: no effect
[21]
  AChE bound to Aβ (6E10 capture): detectable levels
[22]
  Aβ detected with anti-6E10 after immunodepletion: no change
Aβ42; Aβ42 2 μM, AChE 2 μM, 335 min
  aggregation of Aβ42 with AChE (ThT): increased aggregation with changes in both the lag phase and the final ThT fluorescence value
Aβ (12–28) and Aβ (1–16)
  binding to Aβ fragments: binds to Aβ (12–28) and the Aβ (1–16) peptide
[23]
  AChE bound to Aβ (6E10 capture): Barely detectable levels
A549 cells [10]
  apoptosis after treatment with immunodepleted medium: reduced apoptosis
H1299 cells [12]
  cell viability after treatment with immunodepleted medium: no effect
A549 cells [13]
  cell viability after treatment with immunodepleted medium: increased the A549 cell viability
